Measurements reported in patent US12421216B2, “Voruciclib polymorphs and methods of making and using thereof” (MEI PHARMA, INC., priority 2019, dated 2025).
Converted amounts (≈) assume the structure as drawn. “Also recorded” adds a separate entry of the source. Each block holds one compound with its values, some of them ahead of it.

Legend:
Type in all cases: physicochemical
[1] = Solubility of salts in water and in 0.2 M phosphate buffer pH 6 at 37° C. after 4 hours (HPLC-DAD); details: for pH (4 h): pH at end of equilibration
Protocol: Two sets of solubility experiments were performed. […] In the second set of solubility experiments about 5 mg of the salt was weighed in a standard 1.8 mL HPLC vial. Subsequently, aliquots of 200 μL of aqueous medium were added up to a maximum of 1 mL, while making observations regarding the dissolution behavior of the salts. The vials were left to equilibrate at 37° C. with continuous stirring (see Table 25 for details). After 4 hours the solids were separated from the liquid by centrifugation and the liquid phase was further filtrated through a […] PTFE filter to remove any particulate matter. The concentration of solute was determined by HPLC-DAD analysis. A calibration curve was made from two independent stock solutions of voruciclib prepared in acetonitrile/water. The pH was recorded at the end of the equilibration time.

[2] = Approximate solubility assessment of the free base by the solvent (aliquot) addition method; details: for Solubility in words / solubility: RT; for solubility: thermodynamic from solid
Protocol: The approximate solubility of the free base was assessed in several organic solvents (Table 17) by the solvent addition method. To about 5 mg of free base, aliquots of solvent were added until complete dissolution was observed or until a concentration […] was reached. Aliquots of 100 μL were used up to 2 mL, followed by aliquots of 1 mL up to 8 mL. […] Based on the solubility results, in some embodiments the crystallization solvents selected for salt formation were THF, ethanol and acetone.
The solubility assessment was performed according to the aliquot addition method and visually assessed. About 5 mg of free base was weighed into 8 mL glass vials. Aliquots of 100 μL were added up to 2 mL, followed by aliquots of 1 mL up to 8 mL. The experimental conditions are described in Table 21.

[3] = Thermal stability of the free base in solution (HPLC); details: for Area (HPLC): 1 h
[4] = Physical stability of solid forms upon drying under vacuum, HT-XRPD
Protocol: (§1) Amorphous voruciclib oxalate salt, generated by freeze-drying, was used to start the thermocycling experiments. Suspensions were prepared in the selected solvent systems at RT. Subsequently, the mixtures were subjected to a temperature profile. After the temperature profile, the solids were separated from the solutions by centrifugation and were dried at ambient conditions and under deep vacuum before being harvested and analyzed by HT-XRPD. The liquid phases were also dried under deep vacuum before being harvested and analyzed by HT-XRPD. All solids were exposed to AAC (40° C./75% RH, 2 days).
(§2) After the temperature profile, the solids were separated from the liquids by centrifugation and the solid phase was dried at ambient conditions and under deep vacuum (5 mbar) before being harvested and analyzed by HT-XRPD. The liquid phases were dried under deep vacuum (5 mbar) and the recovered solids were analyzed by HT-XRPD. All solids were then exposed to accelerated aging conditions (40° C./75% RH, 2 days) followed by HT-XRPD re-analysis.
as §1, with “voruciclib phosphate” for “voruciclib oxalate”, “profile. Upon completion of” for “profile. After”, “dried under” for “dried at”
as §2, with “dried under” for “dried at”, “(5 mbar, 18 h)” for “(5 mbar)”
Amorphous voruciclib malonate salt, generated by freeze-drying, was used to start the thermocycling experiments. Suspensions were prepared in the selected solvent systems at RT and were subjected to three thermocycles between 50 and 5° C., followed by aging at 25° C. for 3 days. Upon completion of the aging time, the solids were separated from the liquids by centrifugation and they were dried at ambient conditions and under deep vacuum (5 mbar) before being harvested and analyzed by HT-XRPD.
After the temperature profile the solids were separated from the solution by centrifugation and they were dried at ambient conditions and under deep vacuum before being harvested and analyzed by HT-XRPD.

[5] = Physical stability upon exposure to accelerated aging conditions (AAC, 40° C./75% RH), re-analysis by HT-XRPD
[6] = 0.2M phosphate buffer pH 6, 37° C., about 1 mg salt in 1 mL
[7] = 0.2M phosphate buffer pH 6, 37° C., about 5 mg salt in 1 mL
[8] = water, 37° C., about 1 mg salt in 1 mL
[9] = water, 37° C., about 5 mg salt, up to 1 mL

Solubility pH 6 ([1]; 0.2M phosphate buffer (pH 6), 37° C., 4 hours, listed as Voruciclib Free base): 0.01 mg/mL
Solubility water ([1]; water, 37° C., 4 hours, listed as Voruciclib Free base): <10 µg/mL
Solubility at RT ([2]; 1,4-Dioxane): ~1000 µg/mL (≈ 2.13 mM)
Solubility at RT ([2]; 2-Propanol): ~8000 µg/mL (≈ 17 mM)
Solubility at RT ([2]; Acetonitrile): ~5000 µg/mL (≈ 10.6 mM)
Solubility at RT ([2]; Chloroform): ~5000 µg/mL (≈ 10.6 mM)
Solubility at RT ([2]; Ethyl acetate): ~1000 µg/mL (≈ 2.13 mM)
Solubility in words ([2]; THF): soluble
Solubility at RT ([2]; Water): <1000 µg/mL
Solubility in words ([2]; methanol, ethanol and acetone): sparingly soluble
solubility ([2]; organic solvent or mixture, 1,4-Dioxane, approximate, solvent addition, read-out: Solubility): ~1000 µg/mL (≈ 2.13 mM)
solubility ([2]; organic solvent or mixture, 2-Propanol, approximate, solvent addition, read-out: Solubility): ~8000 µg/mL (≈ 17 mM)
solubility ([2]; organic solvent or mixture, Acetone, approximate, solvent addition, read-out: Solubility): 10000 to 13000 µg/mL (≈ 21.3 to 27.7 mM)
solubility ([2]; organic solvent or mixture, Acetonitrile, approximate, solvent addition, read-out: Solubility): ~5000 µg/mL (≈ 10.6 mM)
solubility ([2]; organic solvent or mixture, Chloroform, approximate, solvent addition, read-out: Solubility): ~5000 µg/mL (≈ 10.6 mM)
solubility ([2]; organic solvent or mixture, Ethanol, approximate, solvent addition, read-out: Solubility): 14000 to 18000 µg/mL (≈ 29.8 to 38.3 mM)
solubility ([2]; organic solvent or mixture, Ethyl acetate, approximate, solvent addition, read-out: Solubility): ~1000 µg/mL (≈ 2.13 mM)
solubility ([2]; organic solvent or mixture, Methanol, approximate, solvent addition, read-out: Solubility): 17000 to 26000 µg/mL (≈ 36.2 to 55.3 mM)
solubility ([2]; organic solvent or mixture, Tetrahydrofuran, approximate, solvent addition, read-out: Solubility): 30000 to 60000 µg/mL (≈ 63.9 to 128 mM)
solubility ([2]; organic solvent or mixture, solvents other than THF, methanol, ethanol, acetone, read-out: Solubility in other solvents): < 10000 µg/mL
solubility ([2]; Water, approximate, solvent addition, read-out: Solubility): < 1000 µg/mL
Solubility in words ([2]; water): practically insoluble
Area (HPLC) ([3]; Acetone solution, 25° C.): 1562.10 mAu*s
Area (HPLC) ([3]; Acetone solution, 50° C.): 1566.22 mAu*s
Area (HPLC) ([3]; Acetone solution, 80° C.): 1566.56 mAu*s
Area (HPLC) ([3]; Ethanol solution, 25° C.): 1633.32 mAu*s
Area (HPLC) ([3]; Ethanol solution, 50° C.): 1625.98 mAu*s
Area (HPLC) ([3]; Ethanol solution, 80° C.): 1625.83 mAu*s
Thermal stability in solution ([3]; THF, ethanol, acetone solutions, RT 24 h, 50° C. and 80° C. 1 h, HPLC purity): thermally stable in solution
Area (HPLC) ([3]; Tetrahydrofuran solution, 25° C.): 1697.99 mAu*s
Area (HPLC) ([3]; Tetrahydrofuran solution, 50° C.): 1713.96 mAu*s
Area (HPLC) ([3]; Tetrahydrofuran solution, 80° C.): 1701.15 mAu*s
Structure (SMILES): CN1CC[C@@H](c2c(O)cc(O)c3c(=O)cc(-c4ccc(C(F)(F)F)cc4Cl)oc23)[C@@H]1CO [Voruciclib, (+)-trans-2-(2-chloro-4-trifluoromethylphenyl)-5,7-dihydroxy-8-(2-hydroxymethyl-1-methylpyrrolidin-3-yl)-chromen-4-one]

Solubility in phosphate buffer ([1]; 0.2 M phosphate buffer pH 6, 37° C., 4 hours): 30 µg/mL
solubility ([1]; 0.2M phosphate buffer pH 6, 37° C., 4 hours, about 1 mg salt in 1 mL): 20 µg/mL
solubility ([1]; 0.2M phosphate buffer pH 6, 37° C., 4 hours, about 5 mg salt in 1 mL): 30 µg/mL
Solids recovered / salt dissociation after solubility determination in buffer ([1]; 0.2 M phosphate buffer pH 6, 37° C., 4 hours, XRPD): The salt had dissociated in the buffer
Form (4 h) of residual solid [1, 6]: Am
pH (4 h) [1, 6]: 6.0
Form (4 h) of residual solid [1, 7]: Free
pH (4 h) [1, 7]: 5.8
solubility ([1]; water, 37° C., 4 hours, about 1 mg salt in 1 mL): hazy
solubility ([1]; water, 37° C., 4 hours, about 5 mg salt, up to 1 mL): hazy
Form (4 h) of residual solid [1, 8]: Free
pH (4 h) [1, 8]: 4.4
Form (4 h) of residual solid [1, 9]: Oxa1
pH (4 h) [1, 9]: 4.3
Vacuum ([4]; oxalate salt cooling crystallization, form after drying under deep vacuum (5 mbar), label = ambient-dried form): Oxa1
Physical stability upon drying under deep/high vacuum ([4]; oxalate, phosphate, malonate forms, 5 mbar, 18 h): physically stable
Stability AAC ([5]; oxalate salt cooling crystallization solids, AAC (40° C./75% RH, 1 day)): Stable
Solid forms Vacuum AAC ([5]; oxalate salt thermocycling, vacuum-dried solids after AAC (40° C./75% RH, 2 days), HT-XRPD): Oxa1
Solid phase AAC (XRPD form after accelerated aging) ([5]; precipitated solids of the salt screen, dried under vacuum at 50° C., 40° C./75% RH for 2 days, HT-XRPD): Oxa1
Stable during AAC ([5]; salt screen solids, 40° C./75% RH, 2 days): Yes
Structure (SMILES): CN1CC[C@@H](c2c(O)cc(O)c3c(=O)cc(-c4ccc(C(F)(F)F)cc4Cl)oc23)[C@@H]1CO.CN1CC[C@@H](c2c(O)cc(O)c3c(=O)cc(-c4ccc(C(F)(F)F)cc4Cl)oc23)[C@@H]1CO.O.O=C(O)C(=O)O [Oxa1]
Solids recovered after solubility determination in water ([1]; water, 37° C., 4 hours, XRPD): The residual solids of the suspension were identical to Oxa1
Physical stability upon exposure to AAC ([5]; 40° C./75% RH, 2 days, HT-XRPD before and after): stable when exposed to advanced aging conditions; also recorded: physically stable under short term stress conditions; also recorded: physically stable upon exposure to AAC for two days; also recorded: remained stable upon exposure to AAC
